Data set [1] in a line: Tasting in sweet/salty solution (flavour profile by testers). In kind it is in vivo. The protocol:
The actions found were evaluated with a scale of from 1 (action scarcely perceptible) to 9 (action highly perceptible).
The 5-acetyl-2,5-dimethyl-2-hydroxy-tetrahydrofuran-3-one from Example 1 (2 ppm diacetyl dimer of formula (I) in aqueous 5 wt. % sucrose or 0.5% sodium chloride solution) was investigated for its flavouring action by 9 testers.
The 2,5-diacetyl-3a,5,6,6a-tetrahydro-6a-hydroxy-2,3a,5-trimethylfuro[2,3-d]-1,3-dioxole from Example 1a (1 ppm diacetyl trimer of formula (II) in aqueous 5 wt. % sucrose or 0.5% sodium chloride solution) was investigated for its flavouring action by 9 testers.
The aromatic and/or flavouring composition containing diacetyl dimer of formula (I) and diacetyl trimer of formula (II) from example (1b) (1 ppm of the composition in aqueous 5 wt. % sucrose or 0.5% sodium chloride solution) was investigated for its flavouring action by 7 testers.
For comparison, a flavour profile of diacetyl (1 ppm in aq. 5% sucrose or 0.5% sodium chloride solution) was produced under otherwise identical conditions: fatty (oily) (5), cream (5), butter (7), milk (4), condensed milk (4), fruity (2), cheesy (2), sweet (4), vanillin (2), intensity (7), impact (7), fullness (7), adhesive (5), soft (6).

Data set [2] in a line: Stability on heating and in formulations. The data set is classed as physicochemical. The note with it: for decomposition when heated: heated at 60° C. to 100° C. for 10 minutes.
Where [3] appears, read: 2 ppm in aqueous 5 wt. % sucrose or 0.5% sodium chloride solution, scale 1 to 9.
The mark [4] stands for this setting: 1 ppm in aqueous 5 wt. % sucrose or 0.5% sodium chloride solution, scale 1 (scarcely perceptible) to 9 (highly perceptible).
Where [5] appears, read: 1 ppm in aqueous 5 wt. % sucrose or 0.5% sodium chloride solution, scale 1 to 9.
Where [6] appears, read: 1 ppm in aq. 5% sucrose or 0.5% sodium chloride solution, scale 1 to 9.

The text below walks through data of patent US8287934B2, “Use of diacetyl dimer as an aromatic and/or flavouring substance” (Symrise AG, priority 2006, dated 2012).

For `CC(=O)C1(C)CC(=O)C(C)(O)O1` (racemic) [diacetyl dimer of formula (I), 5-acetyl-2,5-dimethyl-2-hydroxy-tetrahydrofuran-3-one], the “flavour profile: cream” value in data set [1] (2 ppm in aqueous 5 wt. % sucrose or 0.5% sodium chloride solution, scale 1 (scarcely perceptible) to 9 (highly perceptible)) amounted to 5. Further, in data set [1] (setting [3]), the “flavour profile: butter” value stood at 5, the “flavour profile: caramel” value worked out at 3, the “flavour profile: fullness” value amounted to 6 and the “flavour profile: intensity” value amounted to 5. Moreover, in data set [1] (setting [3]), the “flavour profile: soft” value amounted to 6, the “flavour profile: sweet” value is reported as 5, the “flavour profile: toffee” value stood at 4 and the “flavour profile: vanillin” value came to 3. The decomposition when heated entry in data set [2] is “does not decompose”. For the same compound, in data set [2] (nutrition, oral hygiene, luxury product or oral pharmaceutical formulations, in particular acidic or basic pH-value), the “stability in formulations compared with diacetyl” value is recorded as “significantly more stable than diacetyl”.

Consider `CC(=O)C1(C)CC2(O)OC(C)(C(C)=O)OC2(C)O1` (racemic) [diacetyl trimer of formula (II), 2,5-diacetyl-3a,5,6,6a-tetrahydro-6a-hydroxy-2,3a,5-trimethylfuro[2,3-d]-1,3-dioxole], for which, in data set [1] (setting [4]), the “flavour profile: fatty (oily)” value is 7. For the same compound, in data set [1] (setting [5]), the “flavour profile: adhesive” value is on record as 8, the “flavour profile: butter” value was found to be 8, the “flavour profile: caramel” value turned out to be 4 and the “flavour profile: cream” value came out at 6. Also, in data set [1] (setting [5]), the “flavour profile: fresh cheese/quark” value worked out at 4, the “flavour profile: fullness” value amounted to 7, the “flavour profile: impact” value is reported as 7 and the “flavour profile: intensity” value was determined as 6. Besides, in data set [1] (setting [5]), the “flavour profile: soft” value is listed as 6, the “flavour profile: sweet” value is recorded as 6, the “flavour profile: toffee” value was found to be 6 and the “flavour profile: vanillin” value came out at 3. The decomposition when heated entry in data set [2] is given as “does not decompose”.

As to `CC(=O)C(C)=O` [diacetyl, 2,3-butanedione], in data set [1] (setting [6]), the “flavour profile: cheesy” value was found to be 2, the “flavour profile: condensed milk” value is 4, the “flavour profile: fruity” value is recorded as 2 and the “flavour profile: milk” value was 4. Further, the “flavour profile: fatty (oily)” value in data set [1] (setting [4]) is reported as 5. In data set [1] (setting [5]), the “flavour profile: adhesive” value is recorded as 5, the “flavour profile: butter” value is given as 7, the “flavour profile: cream” value worked out at 5 and the “flavour profile: fullness” value came to 7. Moreover, in data set [1] (setting [5]), the “flavour profile: impact” value is 7, the “flavour profile: intensity” value is reported as 7, the “flavour profile: soft” value is on record as 6 and the “flavour profile: sweet” value was 4. Besides, the “flavour profile: vanillin” value in data set [1] (setting [5]) worked out at 2.
